From patent US8455491B2, “6-cycloamino-3-(pyridazin-4-yl)imidazo[1,2-b]pyridazine and derivatives and pharmaceutical compositions comprising the same” (Sanofi, priority 2007, dated 2013)

Molecular target: T1, human CK1 delta (Homo sapiens, UniProt P48730)
T1 construct: purchased Invitrogen Corporation PV3665
Experiment: FRET fluorescence test (Z'Lyte kinase assay Kit), CK1 delta
Type: biochemical
Conditions: peptide substrate SER/THR 11 2 μM, ATP 4 times the KM
Excerpt: The capacity of the compounds of the invention to inhibit the phosphorylation of casein by casein kinase 1 epsilon and delta may be evaluated using a FRET (“Fluorescence Resonance Energy Transfer) fluorescence test with the aid of the “Z′Lyte™ kinase assay Kit” (reference PV3670; Invitrogen Corporation™) according to the manufacturer's instructions.
The casein kinases 1 used are obtained from Invitrogen Corporation (human CK1 epsilon PV3500 and human CK1 delta PV3665).
A peptide substrate, labeled at both ends with a fluorophore donor group (coumarin) and a fluorophore acceptor group ([…]) constituting a FRET system is phosphorylated in the presence of ATP by casein kinase 1 epsilon or delta in the presence increasing concentrations of compounds of the invention. The mixture is treated with a site-specific protease that specifically cleaves the peptide substrate to form two fluorescent fragments having a large fluorescence emission ratio.
The fluorescence observed is thus related to the capacity of the products of the invention to inhibit the phosphorylation of the peptide substrate by casein kinase 1 epsilon or casein kinase 1 delta.
The compounds of the invention are dissolved at different concentrations starting with a 10 mM stock solution in DMSO diluted in a buffer containing 50 mM HEPS, pH 7.5, 1 m MEGTA, 0.01% Brij-35, 10 mM MgCl for casein kinase 1 epsilon and supplemented with Trizma Base (50 mM), pH 8.0, and NaN3 (0.01% final) for casein kinase 1 delta.
The phosphorylation of the peptide substrate SER/THR 11 obtained from Invitrogen Corporation™ is performed at a final concentration of 2 μM. The ATP concentration is 4 times the KM, this value being 2 μM for casein kinase 1 epsilon and 4 μM for casein kinase 1 delta.
The emitted fluorescence is measured at wavelengths of 445 and 520 nm (excitation at 400 nm).

T1 sequence (P48730 whole entry): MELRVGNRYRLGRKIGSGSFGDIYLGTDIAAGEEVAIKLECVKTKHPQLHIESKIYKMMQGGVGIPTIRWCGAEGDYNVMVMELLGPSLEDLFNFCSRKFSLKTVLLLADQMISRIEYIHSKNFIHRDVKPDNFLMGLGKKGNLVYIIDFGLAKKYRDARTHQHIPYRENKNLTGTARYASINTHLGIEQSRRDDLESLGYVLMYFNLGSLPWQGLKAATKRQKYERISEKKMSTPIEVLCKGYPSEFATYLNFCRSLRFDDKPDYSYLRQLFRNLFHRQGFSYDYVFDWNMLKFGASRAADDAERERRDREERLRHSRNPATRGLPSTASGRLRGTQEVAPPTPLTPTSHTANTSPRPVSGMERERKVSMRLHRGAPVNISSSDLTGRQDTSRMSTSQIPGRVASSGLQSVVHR

IC50: 41 to 56 nM
SMILES: CN1CCN(c2ccc3nc(-c4ccc(F)cc4)c(-c4ccnnc4)n3n2)CC1 [compound 5, 2-(4-fluorophenyl)-6-(4-methylpiperazin-1-yl)-3-pyridazin-4-yl-imidazo[1,2-b]pyridazine]
